{"source": "PubChem BioAssay (NCI)", "test_in_all_cases": "NCI-60 cell line screen, 48 h", "key": {"NCI/ADR-RES ovarian": {"system": "NCI/ADR-RES ovarian"}, "NCI-H460 lung": {"system": "NCI-H460 lung"}, "EKVX NSCLC": {"system": "EKVX NSCLC"}, "HCT-116 colon": {"system": "HCT-116 colon"}, "MDA-MB-231 breast": {"system": "MDA-MB-231 breast"}, "MCF7 breast": {"system": "MCF7 breast"}, "A498 renal": {"system": "A498 renal"}, "HL-60(TB) leukemia": {"system": "HL-60(TB) leukemia"}, "TK-10 renal": {"system": "TK-10 renal"}, "MOLT-4 leukemia": {"system": "MOLT-4 leukemia"}, "HCC-2998 colon": {"system": "HCC-2998 colon"}, "A549 NSCLC": {"system": "A549 NSCLC"}, "NCI-H23 lung": {"system": "NCI-H23 lung"}, "OVCAR-4 ovarian": {"system": "OVCAR-4 ovarian"}, "SK-MEL-28 melanoma": {"system": "SK-MEL-28 melanoma"}, "CAKI-1 renal": {"system": "CAKI-1 renal"}, "UO-31 renal": {"system": "UO-31 renal"}, "SF-268 CNS": {"system": "SF-268 CNS"}, "K-562 leukemia": {"system": "K-562 leukemia"}, "CCRF-CEM leukemia": {"system": "CCRF-CEM leukemia"}, "HOP-92 NSCLC": {"system": "HOP-92 NSCLC"}, "HS 578T breast": {"system": "HS 578T breast"}, "SK-MEL-5 melanoma": {"system": "SK-MEL-5 melanoma"}, "M14 melanoma": {"system": "M14 melanoma"}, "SNB-19 CNS": {"system": "SNB-19 CNS"}, "IGROV1 ovarian": {"system": "IGROV1 ovarian"}, "SNB-75 CNS": {"system": "SNB-75 CNS"}, "NCI-H522 lung": {"system": "NCI-H522 lung"}, "HCT-15 colon": {"system": "HCT-15 colon"}}, "note": "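Test compounds were applied to cells in 96-well plates for 48 hours at 5 doses. Abbreviation: GI50, concentration required for 50% inhibition of growth. At the TGI there is no net growth.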"}
{"compound": "COc1ccc(C(=O)/C=C/c2ccc(OCc3ccccc3)c(OC)c2)cc1OC", "values": [{"measurement": "GI50", "setting": "NCI/ADR-RES ovarian", "result": 5.08, "unit": "µM"}, {"measurement": "TGI", "setting": "NCI/ADR-RES ovarian", "result": 39.3, "unit": "µM"}, {"measurement": "GI50", "setting": "NCI-H460 lung", "result": 4.6, "unit": "µM"}, {"measurement": "TGI", "setting": "NCI-H460 lung", "result": 38.3, "unit": "µM"}, {"measurement": "GI50", "setting": "EKVX NSCLC", "result": 11.4, "unit": "µM"}, {"measurement": "TGI", "setting": "EKVX NSCLC", "result": "> 100", "unit": "µM"}, {"measurement": "GI50", "setting": "HCT-116 colon", "result": 3.56, "unit": "µM"}, {"measurement": "TGI", "setting": "HCT-116 colon", "result": "> 100", "unit": "µM"}, {"measurement": "GI50", "setting": "MDA-MB-231 breast", "result": 8.48, "unit": "µM"}, {"measurement": "TGI", "setting": "MDA-MB-231 breast", "result": 78.9, "unit": "µM"}, {"measurement": "GI50", "setting": "MCF7 breast", "result": 3.44, "unit": "µM"}, {"measurement": "TGI", "setting": "MCF7 breast", "result": "> 100", "unit": "µM"}, {"measurement": "GI50", "setting": "A498 renal", "result": 20.3, "unit": "µM"}, {"measurement": "TGI", "setting": "A498 renal", "result": 94.2, "unit": "µM"}, {"measurement": "GI50", "setting": "HL-60(TB) leukemia", "result": 13.4, "unit": "µM"}, {"measurement": "TGI", "setting": "HL-60(TB) leukemia", "result": 61.2, "unit": "µM"}, {"measurement": "GI50", "setting": "TK-10 renal", "result": 21.4, "unit": "µM"}, {"measurement": "TGI", "setting": "TK-10 renal", "result": "> 100", "unit": "µM"}, {"measurement": "GI50", "setting": "MOLT-4 leukemia", "result": 4.47, "unit": "µM"}, {"measurement": "TGI", "setting": "MOLT-4 leukemia", "result": "> 100", "unit": "µM"}, {"measurement": "GI50", "setting": "HCC-2998 colon", "result": 7.06, "unit": "µM"}, {"measurement": "TGI", "setting": "HCC-2998 colon", "result": 30, "unit": "µM"}, {"measurement": "GI50", "setting": "A549 NSCLC", "result": 10.4, "unit": "µM"}, {"measurement": "TGI", "setting": "A549 NSCLC", "result": "> 100", "unit": "µM"}, {"measurement": "GI50", "setting": "NCI-H23 lung", "result": 6.95, "unit": "µM"}, {"measurement": "TGI", "setting": "NCI-H23 lung", "result": 43, "unit": "µM"}, {"measurement": "GI50", "setting": "OVCAR-4 ovarian", "result": 4.28, "unit": "µM"}, {"measurement": "TGI", "setting": "OVCAR-4 ovarian", "result": "> 100", "unit": "µM"}, {"measurement": "GI50", "setting": "SK-MEL-28 melanoma", "result": 34, "unit": "µM"}, {"measurement": "TGI", "setting": "SK-MEL-28 melanoma", "result": "> 100", "unit": "µM"}, {"measurement": "GI50", "setting": "CAKI-1 renal", "result": 16.7, "unit": "µM"}, {"measurement": "TGI", "setting": "CAKI-1 renal", "result": "> 100", "unit": "µM"}, {"measurement": "GI50", "setting": "UO-31 renal", "result": 5.38, "unit": "µM"}, {"measurement": "TGI", "setting": "UO-31 renal", "result": "> 100", "unit": "µM"}, {"measurement": "GI50", "setting": "SF-268 CNS", "result": 10.8, "unit": "µM"}, {"measurement": "TGI", "setting": "SF-268 CNS", "result": "> 100", "unit": "µM"}, {"measurement": "GI50", "setting": "K-562 leukemia", "result": 3.06, "unit": "µM"}, {"measurement": "TGI", "setting": "K-562 leukemia", "result": "> 100", "unit": "µM"}, {"measurement": "GI50", "setting": "CCRF-CEM leukemia", "result": 4.01, "unit": "µM"}, {"measurement": "TGI", "setting": "CCRF-CEM leukemia", "result": "> 100", "unit": "µM"}, {"measurement": "GI50", "setting": "HOP-92 NSCLC", "result": 6.03, "unit": "µM"}, {"measurement": "TGI", "setting": "HOP-92 NSCLC", "result": "> 100", "unit": "µM"}, {"measurement": "GI50", "setting": "HS 578T breast", "result": 18.4, "unit": "µM"}, {"measurement": "TGI", "setting": "HS 578T breast", "result": "> 100", "unit": "µM"}, {"measurement": "GI50", "setting": "SK-MEL-5 melanoma", "result": 17.4, "unit": "µM"}, {"measurement": "TGI", "setting": "SK-MEL-5 melanoma", "result": 43.1, "unit": "µM"}, {"measurement": "GI50", "setting": "M14 melanoma", "result": 27.4, "unit": "µM"}, {"measurement": "TGI", "setting": "M14 melanoma", "result": "> 100", "unit": "µM"}, {"measurement": "GI50", "setting": "SNB-19 CNS", "result": 8.3, "unit": "µM"}, {"measurement": "TGI", "setting": "SNB-19 CNS", "result": "> 100", "unit": "µM"}, {"measurement": "GI50", "setting": "IGROV1 ovarian", "result": 6.33, "unit": "µM"}, {"measurement": "TGI", "setting": "IGROV1 ovarian", "result": "> 100", "unit": "µM"}, {"measurement": "GI50", "setting": "SNB-75 CNS", "result": 18.7, "unit": "µM"}, {"measurement": "TGI", "setting": "SNB-75 CNS", "result": 77.2, "unit": "µM"}, {"measurement": "GI50", "setting": "NCI-H522 lung", "result": 4.86, "unit": "µM"}, {"measurement": "TGI", "setting": "NCI-H522 lung", "result": 36.3, "unit": "µM"}, {"measurement": "GI50", "setting": "HCT-15 colon", "result": 3.45, "unit": "µM"}, {"measurement": "TGI", "setting": "HCT-15 colon", "result": 47.6, "unit": "µM"}]}
